The values below come from patent publication US20110236312A1, “NUCLEOSIDE ANALOGUES USEFUL AS POSITRON EMISSION TOMOGRAPHY (PET) IMAGING AGENTS” (IMPERIAL INNOVATIONS LIMITED, priority 2008, published 2011).

The test system of one data set is HCT116 tumour. Put plainly: Dynamic PET imaging of tumour bearing mice. The format is in vivo. Here is the method:
All animal experiments were done by licensed investigators in accordance with the United Kingdom Home Office Guidance on the Operation of the Animal (Scientific Procedures) Act 1986 and within guidelines set out by the United Kingdom Coordinating Committee for Cancer Research's Ad hoc Committee on Welfare of Animals in Experimental Neoplasia. Both tumour-bearing (Balb/c nude mice) and non-tumour bearing (Balb/c mice) animals were used. Human colon, HCT116, tumours were grown in Balb/c nu/nu mice (Harlan) as previously reported. Tumour dimensions were measured continuously using a caliper and tumour volumes were calculated by the equation: volume=(π/6)×a×b×c, where a, b, and c represent three orthogonal axes of the tumour. Mice were used when their tumours reached approximately 100 mm^3
Dynamic [^18F]FTT imaging scans were carried out on a dedicated small animal PET scanner, Siemens Inveon PET module, Siemens Molecular Imaging Inc., Knoxville, USA). The features of this instrument have been described previously. For scanning the tail veins of vehicle- or drug-treated mice were cannulated after induction of anaesthesia (isofluorane/O2/N2O). […] The count densities were averaged for all ROIs at each of the 19 time points to obtain a time versus radioactivity curve (TAC). […]

A short description of data set [1]: Radio-HPLC metabolite analysis. The format is in vivo. The note with it: HCT116 tumour bearing mice, i.v., 30 min post injection, plasma, liver, kidney, urine, FIG. 5. Here is the method: [^18F]FTT was produced using the method described above. HCT116 tumour bearing mice were injected intravenously via the lateral tail vein with [^18F]FTT (3.7 MBq) and after 30 min post injection were sacrificed by exsanguination via cardiac puncture under isofluorane anesthesia and then tissue removed. Samples were then snap frozen using dry ice and stored until use. To plasma (0.2 ml) was added ice-cold acetonitrile (1.5 ml) and the sample centrifuged (3 min, 4° C., 15493×g). The supernatant was then decanted and evaporated to dryness using a rotary evaporator (bath temperature 40° C.). The sample was then redissolved in 10% ethanol in PBS (1.1 ml) and filtered through a 0.22 μm filter and then injected. Tumour, liver and kidney samples were homogenised in ice-cold acetonitile (1.5 ml) using an IKA Turrax homogeniser and then processed as for plasma samples. Urine samples were diluted with 10% ethanol in PBS (1.1 ml) and filtered through a 0.22 μm filter and then injected.
HPLC conditions: Agilent 1100 series HPLC system (Agilent Technologies, Stockport, UK) equipped with a γ-RAM Model 3 gamma-detector (IN/US Systems Inc., Florida, USA) and the Laura 3 software (LabLogic, Sheffield, UK). […]

For another data set, the system named is HCT116 cells. Put plainly: Acid insoluble fraction measurements (radiotracer incorporation into DNA). The note with it: HCT116 human colon cancer cells in culture. In kind it is cell-based. Here is the method:
Acid extraction was performed to separate radioactivity associated with small molecules, RNA, and proteins from that of DNA. HCT116 cells were cultured in triplicate in 100 mm dishes and the cells were used for DNA extraction at 24 hr. Briefly 5 ml of the assay medium containing 50 μCi of tracer was added to each dish and the dishes incubated at 37° C. for 60 min. After incubation, the medium was removed, and cells were washed twice with ice-cold phosphate-buffered saline (PBS) and 100 μl aliquots of the washings were placed in counting tubes for counting. After washing, the cells were harvested by scraping, collected into counting tubes and then centrifuged at 1200 g at 4° C. for 10 minutes. The cells were homogenized in 1 mL of ice-cold 10% perchloric acid ([…] and centrifuged. The acid-soluble fraction (supernatant) was removed and 100 μl aliquots were counted in a gamma counter. The radioactivity in the acid-insoluble precipitate (largely DNA) was counted separately.

With `Cc1cn([C@H]2C[C@H](O)[C@@H](CO)S2)c(=O)n(Cc2cn(CC[18F])nn2)c1=O` [[^18F]FTT, [^18F]N^3-((1-(2-Fluoroethyl)-1H-[1,2,3]-triazol-4-yl)methyl)-4′-thio-β-thymidine], the “tissue pharmacokinetics (time versus radioactivity curves)” value in the data set with HCT116 tumour (60 min dynamic scan, FIG. 4) is given as “simple tissue pharmacokinetics”. Besides, in the data set with HCT116 tumour (i.v. via tail vein, FIG. 3), the “localisation on PET images” value is “localisation in tumour, kidney, liver and the early part of the small intestines”. The metabolic stability result in data set [1] is recorded as “metabolically stable in mice”. Moreover, the “incorporation into tumour cells in culture” value in the data set on HCT116 cells was “readily incorporated”.
